Measured values reported in ChEMBL document CHEMBL3785014, “A Binding Site on IL-17A for Inhibitory Macrocycles Revealed by Hydrogen/Deuterium Exchange Mass Spectrometry” (J Med Chem, 2016).
Activity calls are given as the source filed them.

How the values were obtained:
[1] = molecular target: Interleukin-17A (Homo sapiens) (UniProt Q16552); test: Binding affinity to recombinant human IL-17A assessed as increase in deuterium uptake at 104 to 116 residues at 10 uM after 10 to 3600 secs by HDX-MS
Chain of Interleukin-17A (Homo sapiens) (Q16552 whole entry, the tested form may be a part): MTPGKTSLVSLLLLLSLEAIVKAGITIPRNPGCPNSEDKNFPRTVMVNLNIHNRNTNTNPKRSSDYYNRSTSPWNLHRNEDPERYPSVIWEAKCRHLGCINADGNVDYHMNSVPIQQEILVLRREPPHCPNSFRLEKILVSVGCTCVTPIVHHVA

[2] = molecular target: Interleukin-17A (Homo sapiens) (UniProt Q16552); test: Binding affinity to recombinant human IL-17A assessed as protection from deuterium uptake at 99 to 103 residues at 10 uM after 10 to 3600 secs by HDX-MS
[3] = molecular target: Interleukin-17A (Homo sapiens) (UniProt Q16552); test: Binding affinity to recombinant human IL-17A assessed as increase in deuterium uptake at 102 to 116 residues at 10 uM after 10 to 3600 secs by HDX-MS
[4] = molecular target: Interleukin-17A (Homo sapiens) (UniProt Q16552); test: Binding affinity to recombinant human IL-17A assessed as protection from deuterium uptake at 58 to 72 residues at 10 uM after 10 to 3600 secs by HDX-MS
[5] = molecular target: Interleukin-17A (Homo sapiens) (UniProt Q16552); test: Binding affinity to recombinant human IL-17A assessed as protection from deuterium uptake at 92 to 99 residues at 10 uM after 10 to 3600 secs by HDX-MS
[6] = molecular target: Interleukin-17A (Homo sapiens) (UniProt Q16552); test: Binding affinity to recombinant human IL-17A assessed as protection from deuterium uptake at 58 to 71 residues at 10 uM after 10 to 3600 secs by HDX-MS
[7] = molecular target: Interleukin-17A (Homo sapiens) (UniProt Q16552); test: Binding affinity to recombinant human IL-17A assessed as protection from deuterium uptake at 90 to 101 residues at 10 uM after 10 to 3600 secs by HDX-MS
[8] = molecular target: Interleukin-17A (Homo sapiens) (UniProt Q16552); test: Binding affinity to recombinant human IL-17A assessed as increase in deuterium uptake at 103 to 114 residues at 10 uM after 10 to 3600 secs by HDX-MS
[9] = molecular target: Interleukin-17A (Homo sapiens) (UniProt Q16552); test: Binding affinity to recombinant human IL-17A assessed as increase in deuterium uptake at 100 to 116 residues at 10 uM after 10 to 3600 secs by HDX-MS
[10] = molecular target: Interleukin-17A (Homo sapiens) (UniProt Q16552); test: Binding affinity to recombinant human IL-17A assessed as protection from deuterium uptake at 92 to 101 residues at 10 uM after 10 to 3600 secs by HDX-MS
[11] = molecular target: Interleukin-17A (Homo sapiens) (UniProt Q16552); test: Binding affinity to recombinant human IL-17A assessed as increase in deuterium uptake at 102 to 120 residues at 10 uM after 10 to 3600 secs by HDX-MS

Measured: Activity

O=C1CNC(=O)[C@@H](Cc2ccc(NC(=O)[C@H](Cc3ccccc3Cl)NC(=O)Cc3ccccc3)cc2)NC(=O)CC2(CCCC2)CC(=O)NCCCCCN1
active: all assays above

O=C1CC2(CCCC2)CC(=O)N[C@H](Cc2ccc(NC(=O)[C@H](Cc3ccccc3Cl)NC(=O)Cc3cccc(O)c3)cc2)C(=O)NCCOCCOCCN1
active: all assays above

O=C1CNC(=O)[C@@H](Cc2ccc(NC(=O)[C@H](Cc3ccccc3Cl)NC(=O)Cc3ccccc3)cc2)NC(=O)CC2(CCCC2)CC(=O)N[C@H](C(=O)O)CCCCN1
active: all assays above
